{"source": "ChEMBL document CHEMBL1148195", "about": "“Chemical investigation of predator-deterred macroalgae from the Antarctic peninsula” (2004)", "format_in_all_cases": "functional", "key": {"Candida albicans": {"system": "Candida albicans", "assay": "Antimicrobial activity against Candida albicans 54 at 200 ug/spot after 18 hrs by agar diffusion method"}, "Staphylococcus aureus [1]": {"system": "Staphylococcus aureus", "assay": "Antibacterial activity against methicillin-resistant Staphylococcus aureus 310 at 200 ug/spot after 18 hrs by agar diffusion method"}, "Enterococcus faecium": {"system": "Enterococcus faecium", "assay": "Antibacterial activity against vancomycin-resistant Enterococcus faecium 379 at 200 ug/spot after 18 hrs by […]"}, "Escherichia coli": {"system": "Escherichia coli", "assay": "Antibacterial activity against permeability mutant Escherichia coli 389 at 200 ug/spot after 18 hrs by agar diffusion method"}, "Staphylococcus aureus [2]": {"system": "Staphylococcus aureus", "assay": "Antibacterial activity against methicillin-sensitive Staphylococcus aureus 375 at 200 ug/spot after 18 hrs by agar diffusion method"}}, "note": "The source made the active and inactive calls. The calls are words filed in the database; no cut-off is given here."}
{"smiles": "C[C@@](Cl)(/C=C/Br)[C@H]1CO[C@@](C)(O)[C@@H](Br)C1", "values": [{"measurement": "inhibition zone (IZ)", "setting": "Candida albicans", "result": 8, "unit": "mm"}]}
{"smiles": "CCC[C@@H](OC(C)=O)C1=C(Br)/C(=C\\Br)OC1=O", "note": "[ACETOXYFIMBROLIDE]", "values": [{"measurement": "inhibition zone (IZ)", "setting": "Staphylococcus aureus [1]", "result": 25, "unit": "mm"}, {"measurement": "inhibition zone (IZ)", "setting": "Enterococcus faecium", "result": 16, "unit": "mm"}, {"measurement": "inhibition zone (IZ)", "setting": "Candida albicans", "result": 17, "unit": "mm"}, {"measurement": "inhibition zone (IZ)", "setting": "Escherichia coli", "result": 9, "unit": "mm"}, {"measurement": "inhibition zone (IZ)", "setting": "Staphylococcus aureus [2]", "result": 24, "unit": "mm"}]}
{"smiles": "CC(C)(Br)[C@@H](Cl)C[C@H](Br)[C@](C)(Cl)/C=C/Br", "note": "[ANVERENE]", "values": [{"measurement": "Activity", "setting": "Staphylococcus aureus [1]", "result": "inactive"}, {"measurement": "inhibition zone (IZ)", "setting": "Enterococcus faecium", "result": 8, "unit": "mm"}, {"measurement": "Activity", "setting": "Candida albicans", "result": "inactive"}, {"measurement": "Activity", "setting": "Escherichia coli", "result": "inactive"}, {"measurement": "Activity", "setting": "Staphylococcus aureus [2]", "result": "inactive"}]}
{"smiles": "CCCCC1=C(Br)/C(=C\\Br)OC1=O", "note": "[FIMBROLIDE]", "values": [{"measurement": "inhibition zone (IZ)", "setting": "Staphylococcus aureus [1]", "result": 7, "unit": "mm"}, {"measurement": "Activity", "setting": "Enterococcus faecium", "result": "inactive"}, {"measurement": "Activity", "setting": "Candida albicans", "result": "inactive"}, {"measurement": "Activity", "setting": "Escherichia coli", "result": "inactive"}, {"measurement": "inhibition zone (IZ)", "setting": "Staphylococcus aureus [2]", "result": 7, "unit": "mm"}]}
{"smiles": "CCC[C@@H](O)C1=C(Br)/C(=C\\Br)OC1=O", "note": "[HYDROXYFIMBROLIDE]", "values": [{"measurement": "inhibition zone (IZ)", "setting": "Staphylococcus aureus [1]", "result": 23, "unit": "mm"}, {"measurement": "inhibition zone (IZ)", "setting": "Enterococcus faecium", "result": 14, "unit": "mm"}, {"measurement": "inhibition zone (IZ)", "setting": "Candida albicans", "result": 25, "unit": "mm"}, {"measurement": "inhibition zone (IZ)", "setting": "Escherichia coli", "result": 9, "unit": "mm"}, {"measurement": "inhibition zone (IZ)", "setting": "Staphylococcus aureus [2]", "result": 23, "unit": "mm"}]}
{"smiles": "CC1=CC(=O)C=C(C/C=C(\\C)CC/C=C(\\C)CC/C=C(\\C)CC/C=C(\\C)C(=O)O)C1=O", "note": "[MENZOQUINONE]", "values": [{"measurement": "inhibition zone (IZ)", "setting": "Staphylococcus aureus [1]", "result": 8, "unit": "mm"}, {"measurement": "inhibition zone (IZ)", "setting": "Enterococcus faecium", "result": 7, "unit": "mm"}, {"measurement": "inhibition zone (IZ)", "setting": "Staphylococcus aureus [2]", "result": 6, "unit": "mm"}]}
